Experimental data taken from patent US8871208B2, “11-β-hydroxysteroid dehydrogenase type 1 (11β-HSD1) inhibitors and uses thereof” (AbbVie Inc., priority 2009, dated 2014).
Read-outs that look alike come from different tables or passages of the source.

Key:
11βHSD-1 = 11βHSD-1 (Homo sapiens, UniProt P28845); conditions: cited from earlier work
[1] = biological target: T1, truncated human 11β-HSD-1 enzyme (24-287AA) (Homo sapiens, UniProt P28845); assay: Human 11β-HSD-1 enzymatic SPA assay; format: biochemical; conditions: human enzyme, SPA
T1 construct: truncated human 11β-HSD-1 enzyme (24-287AA); made in house; host or cells: E. coli (lysate)
Method: The ability of test compounds to inhibit human 11β-HSD-1 enzymatic activity in vitro was evaluated in a Scintillation Proximity Assay (SPA). […] The reaction was stopped by adding a non-specific 11β-HSD inhibitor, 18β-glycyrrhetinic acid. The tritiated cortisol was captured by a mixture of an anti-cortisol monoclonal antibody and SPA beads coated with anti-mouse antibodies. The reaction plate was shaken at room temperature and the radioactivity bound to SPA beads was then measured on a β-scintillation counter. The 11β-HSD-1 assay was carried out in 96-well microtiter plates in a total volume of 220 μl. […] In order to drive the reaction in the forward direction, 1 mM G-6-P was also added. Solid compound was dissolved in DMSO to make a 10 mM stock followed by a subsequent 10-fold dilution with 3% DMSO in Tris/EDTA buffer (pH 7.4). 22 μl of titrated compounds was then added in triplicate to the substrate. Reactions were initiated by the addition of 10 μl of 0.1 mg/ml E. coli lysates overexpressing 11β-HSD-1 enzyme. After shaking and incubating plates for 30 minutes at room temperature, reactions were stopped by adding 10 μl of 1 mM glycyrrhetinic acid. The product, tritiated cortisol, was captured by adding 10 μl of 1 μM monoclonal anti-cortisol antibodies and 100 μl SPA beads coated with anti-mouse antibodies. After shaking for 30 minutes, plates were read on a liquid scintillation counter Topcount. Percent inhibition was calculated based on the background and the maximal signal. Wells that contained substrate without compound or enzyme were used as the background, while the wells that contained substrate and enzyme without any compound were considered as maximal signal. Percent of inhibition of each compound was calculated relative to the maximal signal and IC50 curves were generated. This assay was applied to 11β-HSD-2 as well, whereby tritiated cortisol and NAD^+ were used as substrate and cofactor, respectively.

[2] = Table 1, Barf et al., Drugs of the Future 31(3), 231-243 (2006), read-out: IC50
[3] = Table 3, Boyle et al., Expert Opin. Ther. Patents 19(6), 801-825 (2009), read-out: IC50
[4] = Table 5, Boyle, Current Opinion in Drug Discovery & Development 2008, 11(4), 495-511, read-out: IC50
[5] = Table 4, Webster et al., Expert Opin. Ther. Patents 17(12), 1407-1422 (2007), read-out: IC50
[6] = Table 4, Webster et al., Expert Opin. Ther. Patents 17(12), 1407-1422 (2007), read-out: Ki

T1 sequence (P28845 24-287): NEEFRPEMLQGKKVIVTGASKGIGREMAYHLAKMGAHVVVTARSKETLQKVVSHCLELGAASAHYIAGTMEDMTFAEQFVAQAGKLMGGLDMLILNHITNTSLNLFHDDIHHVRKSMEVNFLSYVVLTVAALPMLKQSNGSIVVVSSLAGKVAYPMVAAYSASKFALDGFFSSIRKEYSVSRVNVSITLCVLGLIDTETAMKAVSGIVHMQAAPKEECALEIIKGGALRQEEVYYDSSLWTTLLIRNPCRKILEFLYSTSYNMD
Chain of 11βHSD-1 (P28845 whole entry, species assumed, the tested form may be a part): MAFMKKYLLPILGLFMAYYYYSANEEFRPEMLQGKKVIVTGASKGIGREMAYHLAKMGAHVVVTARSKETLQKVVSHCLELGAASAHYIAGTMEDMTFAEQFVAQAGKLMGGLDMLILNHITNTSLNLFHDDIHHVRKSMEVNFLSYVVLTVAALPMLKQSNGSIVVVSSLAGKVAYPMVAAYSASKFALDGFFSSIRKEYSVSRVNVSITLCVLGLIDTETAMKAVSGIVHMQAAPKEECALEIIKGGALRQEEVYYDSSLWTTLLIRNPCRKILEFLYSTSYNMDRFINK

Compound: CC(=O)Nc1ccc(OCC(=O)c2ccc(Cl)cc2)cc1 [Example 521]
- IC50 (11βHSD-1; [2]): 153 nM

Compound: CN1C(=O)N(C2C3CC4CC(C3)CC2C4)C[C@@H]1C(C)(C)C (stereo partly shown) [Example 558]
- IC50 (11βHSD-1; [3]): < 50 nM

Compound: O=C(c1ccc(-c2cc(Cl)c(CN3CCC(C4CCCCC4)C3=O)c(Cl)c2)cc1)N1CCN(CCF)CC1 (stereo not shown) [Example 572]
- IC50 (11βHSD-1; [3]): 15.4 nM

Compound: CC1(C2CC2)Cc2nnc(-c3ccccc3Cl)n2CCS1 (stereo not shown) [Example 534]
- % @ 39 nM (11βHSD-1; Table 3, @ 39 nM): 71.8% @ 39

Compound: CC(C)c1nsc(NS(=O)(=O)c2ccc(Oc3ccccc3)cc2)n1 [Example 503]
- IC50 (11βHSD-1; [2]): 219 nM

Compound: CCOc1cc(NC(C)=O)ccc1-c1nnc(N(C)c2ccc(F)cc2)n1C [Example 532]
- IC50 (11βHSD-1; [3]): 3.4 nM

Compound: O=C1OC2(CCN(C(=O)Nc3ccc(Cl)cc3F)C2)c2ccccc21 (stereo not shown) [Example 581]
- IC50 (11βHSD-1; [3]): < 20000 nM

Compound: O=C(CS(=O)(=O)N1CCCC1)c1ccc(F)cc1 [Example 519]
- IC50 (11βHSD-1; [2]): 94 nM

Compound: COc1cc(C(=O)N2CCC(n3c(=O)[nH]c4ccccc43)CC2)ccc1C [Example 698]
- IC50 (11βHSD-1; [4]): 110 nM

Compound: Cc1c(S(=O)(=O)Nc2nc(C34CC5CC(CC(C5)C3)C4)cs2)sc2ccc(Cl)cc12 [Example 681]
- IC50 (11βHSD-1; [5]): 18 nM

Compound: O=C1[C@H](Cc2c(Cl)cc(-c3ccc(F)cc3)cc2Cl)CCN1C1CCc2n[nH]cc2C1 (stereo partly shown) [Example 570]
- IC50 (11βHSD-1; [3]): 276 nM

Compound: CC(CC(F)(F)F)c1nnc(C23CCC(c4nnc(-c5ccccc5C(F)(F)F)n4C)(CC2)CC3)o1 (stereo not shown) [Example 531]
- IC50 (11βHSD-1; [3]): 9 to 100 nM

Compound: CC1(C)CC2CC(C)(CN2C(=O)c2ccc(C(C)(C)O)cc2)C1 (stereo not shown) [Example 696]
- IC50 (11βHSD-1; [4]): 7 nM

Compound: Cc1ccc(S(=O)(=O)N2CCCN(c3c(Cl)cncc3Cl)CC2)cc1 [Example 597]
- IC50 (11βHSD-1; [3]): 910 nM

Compound: Cc1cc(N)nc(NS(=O)(=O)c2sc(-c3ccc(C#N)cc3)nc2C)c1 [Example 672]
- Ki (11βHSD-1; [6]): 2.8 nM

Compound: C[C@@H]1CN(c2ccc(C(N)(C(F)(F)F)C(F)(F)F)cc2)CCN1S(=O)(=O)c1ccc(C(C)(O)C(F)(F)F)cc1 (stereo partly shown) [Example 596]
- IC50 (11βHSD-1; [3]): < 10 nM

Compound: O=C(c1cnoc1-c1ccc(F)cc1)N1CCC(c2ccccc2)C1 (stereo not shown) [Example 700]
- IC50 (11βHSD-1; Table 5, Boyle, Current Opinion in Drug Discovery & Development 2008, 11(4), 495-511): 8 − 10,000 nM

Compound: N#Cc1ccc(C2CCN(S(=O)(=O)Nc3cccc(N)n3)CC2)cc1 [Example 671]
- Ki (11βHSD-1; read-out: Ki): < 1 nM

Compound: Cc1c(Cl)cccc1S(=O)(=O)Nc1nc(CC(=O)N2CCN(C)CC2)cs1 [Example 500]
- IC50 (11βHSD-1): 96 nM

Compound: O=C(c1ccc(OC(F)(F)F)cc1)C1CCN(C(=O)c2ccc(F)cc2)CC1 [Example 523]
- IC50 (11βHSD-1; [2]): 50 nM

Compound: O=C(NC1C2CC3CC1CC(O)(C3)C2)c1ccc(Oc2ccc(Cl)cn2)cc1 (stereo not shown) [Example 551]
- IC50 (11βHSD-1; [3]): ~70 nM

Compound: O=C(N[C@H]1CCCN(S(=O)(=O)c2ccc(F)c3ccccc23)C1)N1CCC(O)CC1 [Example 703]
- IC50 (11βHSD-1; [4]): 13 nM

Compound: O=C(N[C@H]1CCCN(S(=O)(=O)c2ccc(F)c3ccccc23)C1)N1C2CCC1CC(O)C2 (stereo partly shown) [Example 601]
- IC50 (11βHSD-1; read-out: IC50): 3 nM

Compound: Cc1ccc(C(=O)N(C2CC2)[C@H]2CC[C@H](CCO)CC2)c(F)c1 [Example 594]
- IC50 (11βHSD-1; [3]): 2 nM

Compound: C[C@@H](c1ccc(Cl)cc1)N1CCN([C@H]2C3CC4CC2C[C@](O)(C4)C3)C1=O [Example 559]
- IC50 (11βHSD-1; [3]): 12 nM

Compound: COc1ccc(S(=O)(=O)NCC(=O)c2ccc(C(C)(C)C)cc2)cc1 [Example 713]
- IC50 (11βHSD-1; [4]): 82 nM

Compound: O=C(Cc1ccc(Cl)cc1)c1ccc(Br)cc1 [Example 520]
- IC50 (11βHSD-1; [2]): 77 nM

Compound: O=S(=O)(Nc1ccnc(C2CC2)n1)c1ccc2ccccc2c1 [Example 680]
- IC50 (11βHSD-1; [5]): 20 nM

Compound: O=C(O)C12CC3CC(C1)C(NC(=O)C1(c4ccccc4)CC1)C(C3)C2 (stereo not shown) [(E)-4-[(1-phenyl-cyclopropanecarbonyl)-amino]-adamantane-1-carboxylic acid]
- IC50 [1]: 102 nM

Compound: C[C@H](NC1=NC(=O)C(C)(C(F)(F)F)S1)c1ccccc1F (stereo partly shown) [Example 527]
- IC50 (11βHSD-1): 33 nM

Compound: O=C1CC(c2ccccc2)Oc2ccccc21 (stereo not shown) [Example 497]
- IC50 (11βHSD-1; [2]): 18000 nM

Compound: O=C1OC2(CCN(C(=O)C(O)c3ccc(Br)cc3F)C2)c2ccccc21 (stereo not shown) [Example 580]
- IC50 (11βHSD-1; [3]): < 1000 nM

Compound: C[C@H](CCC(=O)O)[C@H]1CC[C@H]2[C@@H]3[C@H](O)C[C@@H]4C[C@H](O)CC[C@]4(C)[C@H]3CC[C@]12C [Example 490]
- IC50 (11βHSD-1): 2800 nM

Compound: CC(C)(C(=O)NC1C2CC3CC(C2)CC1C3)c1ccc(F)cc1 (stereo not shown) [Example 512]
- IC50 (11βHSD-1; [2]): < 1000 nM

Compound: CC(C)(Oc1ccc(Cl)cc1)C(=O)N[C@@H]1[C@@H]2C[C@@H]3C[C@H]1C[C@@](CS(N)(=O)=O)(C3)C2 [N-{(E)-5-[(aminosulfonyl)methyl]-2-adamantyl}-2-(4-chlorophenoxy)-2-methyl propanamide]
- IC50 [1]: 96 nM

Compound: C[S+]([O-])[C@]12C[C@@H]3C[C@H](C1)[C@@H](NC(=O)C(C)(C)Oc1ccc(F)cc1Cl)[C@@H](C3)C2 (stereo partly shown) [2-(2-chloro-4-fluorophenoxy)-2-methyl-N-[(E)-5-(methylsulfinyl)-2-adamantyl]propanamide]
- IC50 [1]: 28 nM

Compound: CC1(C)CC2CC(C)(CN2C(=O)c2cc(Cl)c(N)c(Cl)c2)C1 (stereo not shown) [Example 693]
- IC50 (11βHSD-1; [4]): 4 nM

Compound: CC1(C2CC2)CN(C2C3CC4CC2CC(O)(C4)C3)C(=O)N1C1CC1 (stereo not shown) [Example 557]
- IC50 (11βHSD-1; [3]): 3 nM

Compound: COc1cc(-c2nnc(C34CC5CC(CC(C5)C3)C4)n2C)cc(OC)c1OC [Example 507]
- IC50 (11βHSD-1; [2]): < 10 nM

Compound: O=S(=O)(Cc1ccc(C(F)(F)F)cc1)N1CCN(c2ncccc2C(F)(F)F)CC1 [Example 598]
- IC50 (11βHSD-1; [3]): 430 nM

Compound: Cc1c(Cl)cccc1S(=O)(=O)Nc1ccc2c(c1)nc(C)n2C [Example 505]
- % @ 10 μM (11βHSD-1; Table 1, @ 10 μM): 110% @ 10

Compound: CC(C)[C@@H]1CC[C@@H](C)C[C@@H]1O [Example 524]
- IC50 (11βHSD-1; read-out: IC50): 35000 nM

Compound: CC(=O)N1CCC2(CC(C3(c4ccc(Cl)cc4)CC3)=NO2)C1 (stereo not shown) [Example 579]
- IC50 (11βHSD-1; [3]): < 5000 nM

Compound: C[C@](O)(c1ccc(C(=O)N(C2CCC(c3cccnc3)CC2)C2CC2)cc1)C(F)(F)F (stereo partly shown) [Example 714]
- IC50 (11βHSD-1): 1.4 nM

Compound: N#Cc1ccccc1CSc1nc(O)c(Cl)c2ccc(Cl)cc12 [Example 537]
- IC50 (11βHSD-1; [3]): 2 nM

Compound: CC(O)c1cccc(NS(=O)(=O)c2ccc(-c3ccc(C#N)cc3)cc2)n1 (stereo not shown) [Example 673]
- Ki (11βHSD-1; [6]): 1.8 nM

Compound: Cc1cc(C)nc(NS(=O)(=O)N2CCN(c3ccc(C#N)cn3)CC2)c1 [Example 674]
- Ki (11βHSD-1): 0.66 nM

Compound: O=S(=O)(Cc1ccc(C(F)(F)F)cc1)N1CCN(c2ncccc2C(F)(F)F)CC1 [Example 707]
- IC50 (11βHSD-1; [4]): 430 nM

Compound: O=C(NC1C2CC3CC(C2)CC1C3)[C@H]1CCCN1S(=O)(=O)c1ccc(Cl)cc1 (stereo partly shown) [Example 548]
- IC50 (11βHSD-1; [3]): < 0.03 nM

Compound: CCCC(=O)Cc1csc(NS(=O)(=O)c2cccc(Cl)c2C)n1 [Example 502]
- IC50 (11βHSD-1; [2]): 14 nM

Compound: O=C(c1cnn(C2CCNCC2)c1C1CC1)N1CC[C@@H](c2ccccc2C(F)(F)F)C1 [Example 578]
- IC50 (11βHSD-1; [3]): < 30 nM

Compound: O=C(c1ccc(-c2cc(Cl)c(C[C@@H]3CCN(C4CCCCC4)C3=O)c(Cl)c2)cc1)N1CCN(CCF)CC1 [Example 564]
- IC50 (11βHSD-1; [3]): 115 nM

Compound: Cc1cc(Cl)ccc1OCCCC(=O)N(C)C1C2CC3CC(C2)C(CO)C1C3 (stereo not shown) [Example 555]
- IC50 (11βHSD-1; [3]): 1 nM

Compound: CC1(C)NC2(CCN(C(=O)NC3C4CC5CC(C4)CC3C5)CC2)c2c(Cl)cccc21 (stereo not shown) [Example 560]
- IC50 (11βHSD-1; [3]): < 50 nM

Compound: O=C(N1CCC(c2cn[nH]c2)CC1)N1CCOc2ccc(Cl)cc21 [Example 583]
- IC50 (11βHSD-1; [3]): 39 nM

Compound: CCSc1nc(N2CCOC(C(=O)O)C2)ccc1C(=O)NC1C2CC3CC(C2)CC1C3 (stereo not shown) [Example 547]
- IC50 (11βHSD-1; [3]): 6 nM

Compound: C[C@@H](c1ccc2ccccc2c1)N1CCN(Cc2ccccc2)C1=O [Example 575]
- IC50 (11βHSD-1; [3]): 2.9 nM

Compound: O=C(c1ccc(-c2ccccc2[N+](=O)[O-])o1)N1CC[C@@H]2CCCC[C@@H]2C1 [Example 514]
- IC50 (11βHSD-1; [2]): 7.7 nM

Compound: CC1(C)C(=O)N(C2C3CC4CC2CC(C(N)=O)(C4)C3)CC1COc1ccc(-n2ccnc2)cc1 (stereo not shown) [(E)-4-(4-{[4-(1H-imidazol-1-yl)phenoxy]methyl}-3,3-dimethyl-2-oxopyrrolidin-1-yl)adamantane-1-carboxamide]
- IC50 [1]: 76 nM

Compound: O=S(=O)(Nc1nc(C23CC4CC(CC(C4)C2)C3)cs1)c1cc2ccccc2s1 [Example 682]
- IC50 (11βHSD-1; [5]): 42 nM

Compound: Cc1c(Cl)cccc1S(=O)(=O)N1CCC[C@H](C(=O)NC2CCCCC2)C1 [Example 600]
- IC50 (11βHSD-1; read-out: IC50): 3 nM
